According to patent US11357817B2, “Immunoproteasome inhibitor” (The Regents of the University of California, priority 2017, dated 2022):

What was measured:
[1] = molecular target: T1, c20S (Homo sapiens, UniProt P20618+P28074); assay: Calculation of inhibition constants (inactivation kinetics), c20S; type: biochemical; settings: for Ki: c20S
T1 construct: purchased Boston Biochem
Method: (§1) The rate of AMC release was calculated in the presence of serial dilution of each inhibitor. The rate of product formation were calculated at 30 min intervals for 4 hours, and normalized to activity DMSO control to calculate inactivation curves. Kobs values for each inhibitor concentration were calculated from inactivation curves, and inhibition constants KI and kinact were calculated by non-linear regression of Kobs and inhibitor concentration using GraphPad Prism 6 software.

[2] = tested on: HepG2 cells; assay: HepG2 cytotoxicity assay; type: cell-based; settings: Homo sapiens
Method: The liver-stage and HepG2 toxicity assays were performed as previously reported (35). Briefly, HepG2-A16-CD81EGFP, human hepatocarcinoma HepG2 cells stably transformed to express the tetraspanin CD81 receptor (36, 37) and thus susceptible to P. berghei infection, were cultured at 37° C. in 5% CO2 in DMEM (Life Technologies, Calif.) supplemented with 10% FBS, 0.29 mg/ml glutamine, 100 unit penicillin and 100 μg/ml streptomycin. For both the P. berghei-luciferase and HepG2 cytotoxicity assays, 3×10^3 of the HepG2-A16-CD81EGFP cells in 5 μl of assay medium (DMEM without Phenol Red (Life Technologies, Calif.), 5% FBS, and 5× Pen Strep Glutamine (Life Technologies, Calif.)) at concentration 6×10^5 cells/ml were seeded in 1536-well plates (Greiner BioOne white solid bottom custom GNF mold) 20-26 hours prior to the actual infection. 18 hours prior to infection, 50 nl of compound in DMSO (0.5% final DMSO concentration per well) were transferred with Acoustic Transfer System (ATS) (Biosero) into the assay plates. Atovaquone (12-point serial dilution starting at 10 μM) and Puromycin (12-point serial dilution starting at 10 μM) were used as positive controls for Pb. liver stage assay and HepG2 cytotoxicity respectively. 0.5% DMSO was used as negative control for the both assays.
An. stephensi mosquitoes, infected with P. berghei-luciferase, were provided by the New York University Insectary. P. berghei-luciferase sporozoites were freshly dissected from the infected A. stephensi mosquito salivary glands, filtered twice through a 20 μm nylon net filter using Steriflip Vacuum-Driven Filtration System (Millipore), counted in a hemocytometer, and then adjusted to final concentration 200 sporozoites per μl in the assay media. […] The HepG2-A16-CD81EGFP cell designated for toxicity studies were left uninfected, with 5 ul of additional assay media added to each well to maintain equal concentrations of compounds with P. berghei-luciferase infected plates. After incubation at 37° C. for 48 hours the exoerythrocytic growth and HepG2-A16-CD81EGFP cell viability were quantified by a bioluminescence measurement.
The HepG2 cytotoxicity was assessed by removing the media through an inverted spin of the plates at 150 g for 30 s and addition of 2 μL of CellTiterGlo reagent (Promega diluted 1:2 with deionized water) per well using the MicroFlo liquid handler (BioTek). Immediately after addition of the luminescence reagent, the plates were vortexed for 10 s and read with an EnVision Multilabel reader (PerkinElmer). IC50 values were obtained as above.

[3] = molecular target: Pf20S (Plasmodium falciparum, UniProt A0A5K1K7U1+Q8IJT1); assay: Calculation of inhibition constants (inactivation kinetics), Pf20S; type: biochemical; settings: Pf20S
Pf20S, sequence (A0A5K1K7U1 entry or part of it): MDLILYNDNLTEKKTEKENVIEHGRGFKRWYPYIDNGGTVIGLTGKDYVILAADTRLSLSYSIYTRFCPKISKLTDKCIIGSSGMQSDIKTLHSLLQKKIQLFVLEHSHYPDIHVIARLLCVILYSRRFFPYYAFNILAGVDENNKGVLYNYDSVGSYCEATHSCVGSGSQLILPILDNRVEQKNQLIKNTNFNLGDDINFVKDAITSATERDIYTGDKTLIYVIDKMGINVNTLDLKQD
Pf20S, sequence (Q8IJT1 entry or part of it): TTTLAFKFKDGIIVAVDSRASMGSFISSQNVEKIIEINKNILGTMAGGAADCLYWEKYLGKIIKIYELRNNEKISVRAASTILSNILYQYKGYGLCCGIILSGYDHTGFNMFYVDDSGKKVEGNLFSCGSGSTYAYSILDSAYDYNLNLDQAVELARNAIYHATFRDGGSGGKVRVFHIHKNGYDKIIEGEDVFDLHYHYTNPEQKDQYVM
Method: as §1

[4] = tested on: P. falciparum Dd2; assay: P. falciparum Dd2 asexual blood stage SYBR Green I compound sensitivity assay; type: cell-based, Plasmodium falciparum; settings: for IC50: Plasmodium falciparum, DD2, 72 h, asexual blood stage, 72 hour SYBR green assay; for Selectivity Index: P. falciparum activity versus HepG2 activity
Method: P. falciparum Dd2 strain parasites were cultured under standard conditions (31), using RPMI media supplemented with 0.05 mg/ml gentamycin, 0.014 mg/mL hypoxanthine (prepared fresh), 38.4 mM HEPES, 0.2% Sodium Bicarbonate, 3.4 mM Sodium Hydroxide, 0.05% O+ Human Serum (Denatured at […] for 40 min and From Interstate Blood Bank, Memphis, Tenn.) and 0.0025% Albumax). Human O+ whole blood was obtained from TSRI blood bank (La Jolla, Calif.). Leukocyte-free erythrocytes are stored at 50% hematocrit in RPMI-1640 screening media (as above, but without O+ human serum and with 2× albumax concentration) at 4° C. for one to three weeks before experimental use. Cultures were monitored every one to two days via Giemsa-stained thin smears.
(§2) Compound susceptibility was measured using the malaria SYBR Green I-based fluorescence assay (32). Asynchronous P. falciparum parasites (Dd2 strain) were cultured in standard conditions before being plated for the assays. Each compound was tested over 72 hours in technical duplicates on a twelve-point concentration curve prepared by three-fold dilution from 6.7 μM to 0.11 nM. At least three independent experiments were carried out for IC50 determination. Artemisinin and chloroquine were used as controls. IC50 values were obtained using normalized fluorescence intensity from SYBR green I and analyzed via non-linear variable slope four-parameter regression curve-fitting model in Prism 6 (GraphPad Software Inc).

[5] = tested on: Dd2 parasites; assay: Artemisinin synergy, 72 hour SYBR green assay with co-treatment; type: cell-based, Plasmodium falciparum
Method: as §2

[6] = tested on: ABC16-Monster yeast cells; assay: microbe, parasite or virus in culture; type: cell-based, S. cerevisiae; settings: Saccharomyces cerevisiae
Method: ABC16-Monster yeast cells (15) were inoculated into 5 ml of liquid YPD media and grown to saturation (OD600>1.0) overnight at 200 RPM in a shaking incubator at 30° C. Cultures were diluted to OD600 0.005 to log phase. 100 μl of yeast cells were added to a 96-well plate and incubated with compound starting with a concentration of 150 μM, followed by 1:2 serial dilutions. An initial reading of OD600 (t=0 hrs) was recorded using a Synergy HT spectrophotometer, and cells were grown for a period of 18 hours at 30° C. After incubation, plates were read at OD600. Cells grown in the absence of compound were used as a negative control. Percent growth was calculated using the formula Ab600treated/Ab600control×100
IC50 values were determined by first subtracting the OD600 values at t=0 from those of the final reading and then using Graphpad Prism to calculate nonlinear regression on log(inhibitor) vs. response with variable slope (four parameters).
Each selection was cultured under vigorous shaking until the culture reached saturation. […] Single colonies were isolated, and IC50 assays were performed to determine the degree of evolved resistance vs. that of the parental strain.

[7] = tested on: 20S Plasmodium proteasome (Pf20S) β2 subunit; assay: Proteasome activity assay, Pf20S β2 (z-LRR-AMC); type: biochemical; settings: 150 nM inhibitor
Method: (§3) Asynchronous P. falciparum cultures were grown up to 4-5% parasitemia, in 300 mL of RPMI media at 5.0% hematocrit. […] The PBS was removed and lysis buffer (0.15% saponin in PBS) was added on ice in 10 pellet volumes. Upon lysis of red blood cells, indicated by a clear red supernatant, the lysed cultures were centrifuged at 3200×g for 12 minutes at 4° C. The supernatant was removed by aspiration and the cells were washed twice using chilled PBS in microcentrifuge tubes. The cell pellets were then incubated on ice for 1 hour with occasional vortexing in a buffer consisting of 20 mM Tris-HCl pH 7.5, 5 mM MgCl2, 1 mM DTT, 100 μM E-64 and 1 mM AEBSF. This sample was then subjected to 3 rounds of freezing (−80° C.) and thawing (37° C.) and centrifugation at 6000×g for 10 min. The supernatant containing soluble P. falciparum protein was quantified by the BCA method (Pierce).
(§4) P. falciparum proteasome was enriched by two-chromatographic steps reported previously (10). […] The AMC fluorophore release was monitored at Ex 340/Em 465 nm at 24° C. using a Synergy HTX multi-mode reader (Biotek). […] Proteins were eluted using 20 mM Tris-HCl pH 7.5, 100 mM NaCl, 10% glycerol and 1 mL fractions were collected, evaluated for protease activity and pooled. […]

[8] = tested on: 20S Plasmodium proteasome (Pf20S) β5 subunit; assay: Proteasome activity assay, Pf20S β5 (suc-LLVY-AMC); type: biochemical, Plasmodium falciparum; settings: 150 nM inhibitor
Method: Asynchronous P. falciparum cultures were grown up to 4-5% parasitemia, in 300 mL of RPMI media at 5.0% hematocrit. Cultures were then transferred to 50 mL conical tubes, pelleted via centrifugation at 800 g for 5 min, and washed once with 1×PBS and pelleted again as above. The PBS was removed and lysis buffer (0.15% saponin in PBS) was added on ice in 10 pellet volumes. Upon lysis of red blood cells, indicated by a clear red supernatant, the lysed cultures were centrifuged at 3200×g for 12 minutes at 4° C. The supernatant was removed by aspiration and the cells were washed twice using chilled PBS in microcentrifuge tubes. The cell pellets were then incubated on ice for 1 hour with occasional vortexing in a buffer consisting of 20 mM Tris-HCl pH 7.5, 5 mM MgCl2, 1 mM DTT, 100 μM E-64 and 1 mM AEBSF. This sample was then subjected to 3 rounds of freezing (−80° C.) and thawing (37° C.) and centrifugation at 6000×g for 10 min. The supernatant containing soluble P. falciparum protein was quantified by the BCA method (Pierce).
P. falciparum proteasome was enriched by two-chromatographic steps reported previously (10). In brief, 10 mg of P. falciparum protein was concentrated to 1 mL using a 100 kDa centrifugal filter unit (Amicon) and loaded onto a 5 mL anion exchange HiTrap DEAE FF column (GE Healthcare). […] The AMC fluorophore release was monitored at Ex 340/Em 465 nm at 24° C. using a Synergy HTX multi-mode reader (Biotek). […] Proteins were eluted using 20 mM Tris-HCl pH 7.5, 100 mM NaCl, 10% glycerol and 1 mL fractions were collected, evaluated for protease activity and pooled.
To estimate the concentration of Pf20S in the final pooled sample, protein was denatured and loaded into a 4-12% Bis-Tris Plus gel (Thermo Fisher Scientific) beside 60 to 100 ng of human constitutive proteasome (Boston Biochem). […] For inhibition assays, inhibitor and substrate were added simultaneously to the enzyme and the rate of AMC release was determined from 60 to 120 minutes and compared to a DMSO control.

[9] = tested on: 20S Plasmodium proteasome (Pf20S) β1 subunit; assay: Proteasome activity assay, Pf20S β1 (z-LLE-AMC); type: biochemical, Plasmodium falciparum; settings: 150 nM inhibitor
Method: as §3, §4

CCCCCC(=O)N[C@H](C(=O)N[C@@H](CCCC)C(=O)N[C@@H](CC(C)C)C(=O)[C@@]1(C)CO1)C(C)C [Analog 1, (S)-2-((S)-2-hexanamido-3-methylbutanamido)-N—((S)-4-methyl-1-((R)-2-methyloxiran-2-yl)-1-oxopentan-2-yl)hexanamide]
Ki [1]: 3740 nM
loss in potency to c20S ([1]; kinact/Ki, analog 1 versus carmaphycin B): 3 fold
IC50 [2]: 134 ± 86.7 nM
Ki [3]: 2290 nM
IC50 [4]: 4.11 ± 0.077 nM

CCCCCC(=O)N[C@@H](Cc1c[nH]c2ccccc12)C(=O)N[C@@H](Cc1c[nH]c2ccccc12)C(=O)N[C@@H](Cc1ccccc1)C(=O)[C@@]1(C)CO1 [Analog 17, N—((S)-1-(((S)-3-(1H-indol-3-yl)-1-(((S)-1-((R)-2-methyloxiran-2-yl)-1-oxo-3-phenylpropan-2-yl)amino)-1-oxopropan-2-yl)amino)-3-(1H-indol-3-yl)-1-oxopropan-2-yl)hexanamide]
IC50 [2]: 346 ± 86.2 nM
Selectivity Index [4]: 36.89
IC50 [4]: 9.38 ± 0.667 nM

CCCCCC(=O)N[C@H](Cc1c[nH]c2ccccc12)C(=O)N[C@@H](CCCC)C(=O)N[C@@H](CC(C)C)C(=O)[C@@]1(C)CO1 [Analog 19, (S)-2-((R)-2-hexanamido-3-(1H-indol-3-yl)propanamido)-N—((S)-4-methyl-1-((R)-2-methyloxiran-2-yl)-1-oxopentan-2-yl)hexanamide]
IC50 [2]: 915 ± 289 nM
increase in selectivity ([4]; D-amino acid at P3 in place of L-Val of analog 1, comparator not stated): 100 fold
Selectivity Index [4]: 313.36
IC50 [4]: 2.92 ± 0.403 nM

C[C@@H]1CC[C@H]2[C@@H](C)C(=O)O[C@@H]3O[C@@]4(C)CC[C@@H]1[C@]32OO4 [Artemisinin, artemisinin]
IC50 ([5]; Plasmodium falciparum, DD2, wild-type parasites treated with ART alone): 19.7 to 23.3 nM

CCCCCC(=O)N[C@H](C(=O)N[C@@H](CCS(C)(=O)=O)C(=O)N[C@@H](CC(C)C)C(=O)[C@@]1(C)CO1)C(C)C [Carmaphycin B]
sensitization to ART ([5]; co-treatment with ART and 0.5 nM of the compound): 2 fold
sensitization to ART ([5]; co-treatment with ART and 1 nM of the compound): 3 fold
Ki [1]: 375 nM
IC50 ([6]; GM (parental ABC16-Monster strain)): 24300 nM
IC50 ([6]; resistant Lineage 1): > 150000 nM
IC50 ([6]; resistant Lineage 2): 52700 nM
IC50 ([6]; resistant Lineage 3): > 100000 nM
Pf20S β2 activity reduced [7]: 29%
Ki [3]: 223 nM
Pf20S β5 activity reduced [8]: 45%
Pf20S β1 activity reduced [9]: 16%
